According to patent US10626118B2, “Pyrrolopyrimidine crystal for preparing JAK inhibitor” (Chia Tai Tianqing Pharmaceutical Group Co., Ltd., priority 2016, dated 2020):
Where two headings read alike, the source gives them in different places.

Legend:
[1] = rats, 30 mg/kg PO; FDA pharmacology review; cited from earlier work
[2] = dogs, Male, FDA pharmacology review, cited from earlier work
[3] = Stability test, open clean container at 60° C.; format: physicochemical
Procedure: The crystal A obtained in Method 1 of Example 2 and the crystal B obtained in Example 3 were placed in an open clean container at 60° C., and sampled for detection on days 5 and 10, respectively.

Row | Content (%) ([3]; Day 0) | Total Impurity (%) ([3]; Day 0) | Content (%) ([3]; Day 5) | Total Impurity (%) ([3]; Day 5) | Content (%) ([3]; Day 10) | Total Impurity (%) ([3]; Day 10) | SMILES | AUCINFobs [1] | AUCINF_obs ([2]; IV 5 mg/kg) | AUCINF_obs ([2]; PO 10 mg/kg)
1 |  |  |  |  |  |  | N#CC[C@H](C1CCCC1)n1cc(-c2ncnc3[nH]ccc23)cn1 [Ruxolitinib] | 1345 ng·h/mL | 13776 ng·h/mL | 15716 ng·h/mL
2 | 99.72% | 0.28% | 99.71% | 0.29% | 99.73% | 0.27% | N#CC[C@H](C1CCCC1)n1cc(-c2ncnc3[nH]ccc23)c(N)n1 [Crystal A of compound represented by formula I] [(3R)-3-[3-amino-4-(7H-pyrrolo[2,3-d]pyrimidin-4-yl)-1H-pyrazol-1-yl]-3-cyclopentyl-propionitrile] |  |  | 
3 | 99.23% | 0.77% | 99.23% | 0.77% | 99.22% | 0.78% | N#CC[C@H](C1CCCC1)n1cc(-c2ncnc3[nH]ccc23)c(N)n1 [Crystal B of compound represented by formula I] [(3R)-3-[3-amino-4-(7H-pyrrolo[2,3-d]pyrimidin-4-yl)-1H-pyrazol-1-yl]-3-cyclopentyl-propionitrile] |  |  | 
